Test [1] has as its system TLR8-mediated TNF-α and IL-8 mRNA. In words: RT-PCR of TNF-α and IL-8 mRNA in R848 treated HEK-Blue TLR8 cells. Format: cell-based, human. The note with it: negative control, 10 μM. An excerpt: R848-induced TLR8 activation results in increased production of the proinflammatory cytokines, such as TNF-α, IL-6 and IL-8.
The test system of test [2] is TLR8-mediated TNF-α production in THP-1 cells. Nature of the test: R848-induced TNF-α production in differentiated THP-1 monocytes. Particulars: 10 μM. It counts as cell-based, human.
For the next test, the target named is T1, human TLR8 (Homo sapiens, UniProt Q9NR97).
T1 construct: expressed in transfected cells; host or cells: HEK-Blue Null1 cells, lentiviral infection
T1 sequence (Q9NR97 27-1041): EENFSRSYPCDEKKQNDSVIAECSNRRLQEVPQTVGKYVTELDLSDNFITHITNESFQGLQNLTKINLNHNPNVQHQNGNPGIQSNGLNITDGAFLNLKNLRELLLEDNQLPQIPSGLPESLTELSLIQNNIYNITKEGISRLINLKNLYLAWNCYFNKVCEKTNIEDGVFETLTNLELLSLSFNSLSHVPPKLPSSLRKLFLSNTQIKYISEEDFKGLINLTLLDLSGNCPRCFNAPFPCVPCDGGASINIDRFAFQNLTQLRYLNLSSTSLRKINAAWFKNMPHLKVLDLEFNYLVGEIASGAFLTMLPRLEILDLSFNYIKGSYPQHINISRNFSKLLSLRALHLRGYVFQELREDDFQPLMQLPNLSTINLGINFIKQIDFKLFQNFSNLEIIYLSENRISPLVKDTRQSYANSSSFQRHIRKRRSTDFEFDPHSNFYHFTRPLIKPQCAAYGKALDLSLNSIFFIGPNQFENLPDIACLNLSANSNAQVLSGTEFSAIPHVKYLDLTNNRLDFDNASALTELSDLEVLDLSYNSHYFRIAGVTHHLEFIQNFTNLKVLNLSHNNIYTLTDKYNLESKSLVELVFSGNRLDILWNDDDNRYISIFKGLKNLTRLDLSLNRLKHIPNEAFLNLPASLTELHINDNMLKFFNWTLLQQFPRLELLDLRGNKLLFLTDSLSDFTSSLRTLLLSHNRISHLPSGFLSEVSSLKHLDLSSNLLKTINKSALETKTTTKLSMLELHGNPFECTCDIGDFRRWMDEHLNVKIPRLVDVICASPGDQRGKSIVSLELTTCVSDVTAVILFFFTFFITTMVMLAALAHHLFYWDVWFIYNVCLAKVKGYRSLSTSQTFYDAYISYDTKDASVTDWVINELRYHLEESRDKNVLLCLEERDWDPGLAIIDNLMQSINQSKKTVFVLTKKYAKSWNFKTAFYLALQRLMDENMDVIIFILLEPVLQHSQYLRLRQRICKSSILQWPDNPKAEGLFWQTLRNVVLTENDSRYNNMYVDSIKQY
In words: SEAP reporter assay in HEK-Blue TLR8 cells, R848-induced TLR8 signaling. Format: cell-based. Particulars: up to 20 μM. As to the method: SEAP reporter assay: HEK-Blue TLR8 cells were seeded in tissue culture treated 96-well plates with a density of 7.5×10^4 cells/well in DMEM media supplemented with 10% FBS (phosphatases deactivated with heat). […] Plates are then incubated in humidified incubators containing 5% CO2 at 37° C. for 24 h, after which, 30 μL of culture media was transfer to a new plate and 100 μL of Quanti-Blue (Invivogen) was added, the plate was then incubated at 37° C. till color change (30 min-1 h). Readout of absorbance at 620 nm was quantified using Beckman-Coulter DTX 880 Multimode Detector. […] SEAP assays for each sample were conducted with three biological replicates, each in triplicate.
To establish a robust high throughput assay for TLR8 inhibitors, the inventors first engineered a cell line stably overexpressing the human TLR8 whose activation can be reported by the Secreted Embryonic Alkaline Phosphatase (SEAP) assay. TLR8-overexpresing HEK-Blue cells were prepared by lentiviral infection of HEK-Blue Null1 cells that have null or low basal expression of endogenous TLR genes. […] The TLR8-mediated NF-κB activation can be assessed by measuring the SEAP activity.
On the technique in general: A reporter such as luciferase makes a cellular process visible.

The subject of test [3] is TNF-α production in PBMCs from an AOSD patient. Nature of the test: TNF-α level in PBMCs harvested from an AOSD patient. Format: cell-based, human. The note with it: negative control, 40 μM. Here is the method: But there is a lack of appropriate rodent models because TLR8 is not functional in either mice or rats. Therefore, the TLR8 inhibitors of this disclosure were tested in human specimens harvested from patients with osteoarthritis (OA), rheumatoid arthritis (RA), and adult onset-Still's disease (AOSD). It is well established that TNF-α and IL-1β are key cytokines in the process of chronic joint inflammation in cartilage. Therefore, synovial cells were isolated from synovial tissue of patients who underwent joint replacement surgery due to severe OA. Previous studies have indicated these pathological tissues express both TLR7 and TLR8 with elevated production of various cytokines, contributing to extensive articular destruction and functional decline.

Test [4] deals with TNF-α production in PBMCs from RA patients. Nature of the test: TNF-α level in PBMCs harvested from RA patients. It counts as cell-based, human. The note with it: negative control, up to 80 μM.
Test [5] relates to TLR8-mediated TNF-α production in PBMC cells. In words: R848-induced TNF-α secretion in PBMCs. Format: cell-based, human. Particulars: 1 μg/mL R848; dose-dependent; 4a at 50 μM. An excerpt: Peripheral blood mononuclear cells (PBMCs) include lymphocytes (T cells, B cells, and NK cells), monocytes, and dendritic cells expressing various TLRs. TLR7 and TLR8 are both expressed on B cells and monocytes, while DC plasmacytoids (DCps) express only TLR7 and immature DCs (DC11c^+) express only TLR8.

Entries after “also recorded” stand apart in the source; their conditions may differ.

In the case of `O=C(O)c1cnn2c(-c3cccc(C(F)(F)F)c3)ccnc12` [Compound 4a], in test [1], the “inhibition of R848-induced TNF-α and IL-8 mRNA levels” value is recorded as “negligible inhibition”. Moreover, the “inhibition of R848-induced TNF-α production” value in test [2] was “failed to show significant inhibition”. For the same compound, the “inhibitory activity against TLR8 signaling” value against human TLR8 is reported as “did not show any inhibitory activity”. Also, the “inhibitory activity on TNF-α level in PBMCs from an AOSD patient” value in test [3] was “did not show notable inhibitory activity”. Besides, the “inhibition of TNF-α level in PBMCs from RA patients” value in test [4] is “did not show significant inhibition; also recorded: did not show notable inhibitory activity”. Further, in test [5], the “R848-induced TNF-α secretion of PBMCs” value is given as “not”.

The values are drawn from US11466010B2, “Toll-like receptor 8 (TLR8) specific antagonists and methods of making and uses thereof” (The Regents of the University of Colorado, a body corporate, priority 2017, dated 2022).
